Results reported in US10500178B2, “LTB4 inhibition to prevent and treat human lymphedema” (The Board of Trustees of the Leland Stanford Junior …, priority 2015, dated 2019).

What was measured:
S1P, S1pr1, Sphk1, eNOS = assay: S1P signaling in mouse lymphedema; assay type: in vivo; settings: therapy initiated 3d after surgery
Protocol: All small molecule drugs were administered through daily intraperitoneal injection.
Quantification of LTB4, PGE2 and S1P with LC-MS/MS. Briefly, LTB4, PGE2 and S1P were separated from serum with an ACE reverse phase C18 HPLC column. Formic acid 0.5% in 5 mM NH4Ac (A) and formic acid 0.5% in acetonitrile/water (9/1) (B) were used as the mobile phase. Lipids were detected with positive multiple reaction monitor (MRM) scanning at 335.16/194.80 m/z for LTB4, 351.20/189.50 m/z for PGE2 and 330.20/264.40 m/z for S1P using a Sciex API-4000 MS/MS combined with a Shimazu 20A HPLC system. The internal standard of this method was Carbutamide. The quantification limit was 1 ng/ml. The calibration range was 1-2000 ng/ml. The accuracy of the standards and control samples ranged from 88.7% to 120%.

secondary leg lymphedema = assay: study of ubenimex in patients with secondary leg lymphedema; assay type: in vivo, human; settings: oral 150 mg three times daily, 6-month treatment period
Protocol: A study is conducted for treatment of patients with acquired lymphedema of the lower extremities with ubenimex. In this study, ubenimex is evaluated over a 6-month treatment period to determine the effect on dermal thickness and other efficacy measures in patients with secondary leg lymphedema. The efficacy, safety and tolerability of ubenimex in this patient population is characterized. Adult male and female subjects are enrolled with a confirmed diagnosis of Stage II or greater secondary leg lymphedema, based on a positive lymphoscintigraphy (LSG) study of the affected leg. At least 20 individuals are enrolled in each of the treatment and placebo arm of the trial. Individuals are given oral 150 mg ubenimex three times daily for a total daily dose of 450 mg. The drug and placebo are provided in a capsule form. Efficacy assessments include skin thickness (as measured by skinfold calipers), leg volume (as measured by standardized tape measure), bioimpedance (as measured by the […]) to measure 4-limb bioimpedance to determine extracellular fluid volume), and skin biopsy results (as measured by 6-mm skin punch biopsy samples to assess skin thickness and architecture (e.g., presence of hyperkeratosis, dermal collagen, and adipose deposition).

**Q.** Which results are given for `CC(C)C[C@H](NC(=O)[C@@H](O)[C@H](N)Cc1ccccc1)C(=O)O` [bestatin, (2S)-2-[[(2S,3R)-3-amino-2-hydroxy-4-phenylbutanoyl]amino]-4-methylpentanoic acid]?
**A.** S1P and S1pr1 levels (S1P, S1pr1, Sphk1, eNOS): restored; Sphk1 and eNOS expression (S1P, S1pr1, Sphk1, eNOS): normalized; difference between ubenimex and placebo treatment arms by clinical indicia (secondary leg lymphedema): statistically significant difference
